pIC50: −log10 of the molar value.
Key:
[1] = system: HepG2 cells; assay: Cell viability assay; type: cell-based; settings: CellTiter-Glo, 96 h
[2] = system: α-tubulin acetylation in HCT116 and A549 cells; assay: Western blotting of α-tubulin acetylation; type: cell-based; settings: TSA 0.2 μM, UF010 2 μM, 1 h before lysis
[3] = system: acetylated histones in HCT116 cells; assay: Western blotting of histone acetylation after 1 h exposure; type: cell-based; settings: TSA 0.2 μM, other compounds 2 μM
[4] = system: HDACs in HCT116; type: cell-based; settings: HCT116 (Fig. 2C) and HepG2 cells (data not shown)
[5] = system: MDA-MB-231 cells; assay: Cell viability assay; type: cell-based; settings: read-out: IC50 viability MDA-MB-231, CellTiter-Glo, 96 h (Fig. 3C)
[6] = system: MDA-MB-231 cells; assay: Wound healing cell migration assay; type: cell-based; settings: MDA-MB-231 monolayer scratch; UF010 at 1 μM
[7] = system: MDA-MB-231 cells; assay: Cell cycle analysis by FACS; type: cell-based; settings: MDA-MB-231, 24 h exposure
[8] = molecular target: HDAC2 (Homo sapiens, UniProt Q92769); assay: HDAC2 inhibition kinetics; type: biochemical; settings: purified HDAC2
[9] = system: histone acetylation (H3K18ac) in HCT116 cells; assay: Drug washout, histone acetylation by Western blotting; type: cell-based; settings: 6 h pulse then washout, time counted from drug addition
[10] = system: Sin3 complex; assay: Inhibition of the Sin3 complex; settings: data not shown
[11] = bovine, serum
[12] = system: HCT116 cells; assay: Cell viability assay; type: cell-based; settings: Homo sapiens, HCT-116, 96 h, read-out: IC50 for killing HCT116 cells

Chain of HDAC2 (Q92769 whole entry): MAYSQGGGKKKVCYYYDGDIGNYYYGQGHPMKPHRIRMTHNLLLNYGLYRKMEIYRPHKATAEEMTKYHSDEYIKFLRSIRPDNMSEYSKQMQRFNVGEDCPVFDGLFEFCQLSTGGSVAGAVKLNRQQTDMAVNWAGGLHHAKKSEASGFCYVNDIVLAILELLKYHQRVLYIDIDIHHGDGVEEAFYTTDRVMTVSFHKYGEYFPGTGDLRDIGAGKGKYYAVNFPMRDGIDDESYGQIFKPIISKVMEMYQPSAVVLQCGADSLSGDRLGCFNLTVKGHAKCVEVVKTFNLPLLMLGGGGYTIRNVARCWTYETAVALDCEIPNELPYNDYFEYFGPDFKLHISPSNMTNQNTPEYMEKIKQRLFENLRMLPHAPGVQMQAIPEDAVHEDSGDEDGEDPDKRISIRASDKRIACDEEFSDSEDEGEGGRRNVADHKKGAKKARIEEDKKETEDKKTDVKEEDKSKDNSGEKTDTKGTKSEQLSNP

SMILES	effect on α-tubulin acetylation [2]	induction of histone acetylation [3]	effect on cell cycle progression [7]	time up to which induced histone acetylation was maintained [9]	further results
CCCCNNC(=O)c1ccc(N(C)C)cc1 [SR-3208]	–	–	–	–	fold more potent than UF010 in eliciting cytotoxicity [1]: 3 fold
CC(/C=C/C(=O)NO)=C\[C@@H](C)C(=O)c1ccc(N(C)C)cc1 [TSA, trichostatin A, reference compound]	dramatically increased	strongly induced acetylation at some sites but weakly at other sites	–	–	–
CCCCNNC(=O)c1ccc(Br)cc1 [UF010]	had no effect	consistently induced the accumulation of acetylated histones at all sites	mainly blocked G1/S transition	up to 96 h	fold more potent than MS-275 against HDACs in cells [4]: about 5 fold; pIC50 [5]: 4.54; effect on cell migration [6]: markedly slowed migration; mechanism of HDAC2 inhibition vs. substrate [8]: competitive inhibitor; inhibition of the Sin3 complex [10]: can inhibit; half-life in cell culture medium [11]: 15.8 h
C/C=C1\NC(=O)[C@H]2CSSCC/C=C/[C@H](CC(=O)N[C@H](C(C)C)C(=O)N2)OC(=O)[C@H](C(C)C)NC1=O [Romi-depsin, romidepsin]	–	–	–	up to 24 h	–
O=C(CCCCCCC(=O)Nc1ccccc1)NO [SAHA, vorinostat, reference compound]	–	–	inhibited G1/S progression at 1 μM but induced a strong G2/M block at 10 μM	–	–
Nc1ccccc1NC(=O)c1ccc(CNC(=O)OCc2cccnc2)cc1 [MS-275, entinostat]	–	only slightly induced acetylation at several sites but failed to induce acetylation at most sites	–	at least 48 h	pIC50 [12]: 5.68

Reference: publication PMC4365786 (Chemistry & biology, 2015)
